Measured values published in ChEMBL document CHEMBL4507276 (2021).

Tests used:
[1] = target: T1, MAP/microtubule affinity-regulating kinase 4 (Homo sapiens) (UniProt Q96L34); assay: MARK4 Invitrogen selectivity data (BI); conditions: Compound concentration 3.0 uM
T1 sequence (whole entry): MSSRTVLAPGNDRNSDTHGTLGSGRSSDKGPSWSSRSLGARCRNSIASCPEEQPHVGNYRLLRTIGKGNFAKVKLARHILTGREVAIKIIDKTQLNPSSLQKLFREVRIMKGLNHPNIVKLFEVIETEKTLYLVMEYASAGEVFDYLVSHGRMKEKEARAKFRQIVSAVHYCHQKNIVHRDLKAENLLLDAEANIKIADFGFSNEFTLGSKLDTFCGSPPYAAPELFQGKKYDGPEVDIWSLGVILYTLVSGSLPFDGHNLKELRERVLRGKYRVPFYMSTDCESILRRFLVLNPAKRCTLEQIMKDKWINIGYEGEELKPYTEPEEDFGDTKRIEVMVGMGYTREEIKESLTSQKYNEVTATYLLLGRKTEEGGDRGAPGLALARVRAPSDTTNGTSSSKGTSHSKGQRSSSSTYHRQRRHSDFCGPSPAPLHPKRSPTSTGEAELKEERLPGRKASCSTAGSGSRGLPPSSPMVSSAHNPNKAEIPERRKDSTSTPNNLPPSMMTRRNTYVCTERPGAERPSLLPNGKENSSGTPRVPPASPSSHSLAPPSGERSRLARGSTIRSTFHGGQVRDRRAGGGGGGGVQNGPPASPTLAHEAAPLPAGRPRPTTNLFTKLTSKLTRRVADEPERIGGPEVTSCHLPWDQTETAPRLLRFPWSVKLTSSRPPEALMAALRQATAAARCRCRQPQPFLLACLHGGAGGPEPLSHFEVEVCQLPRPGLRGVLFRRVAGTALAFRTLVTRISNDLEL

[2] = target: T2, Serine/threonine-protein kinase DCLK2 (Homo sapiens) (UniProt Q8N568); assay: DCAMKL2 Invitrogen selectivity data (BI); conditions: Compound concentration 3.0 uM
T2 sequence (whole entry): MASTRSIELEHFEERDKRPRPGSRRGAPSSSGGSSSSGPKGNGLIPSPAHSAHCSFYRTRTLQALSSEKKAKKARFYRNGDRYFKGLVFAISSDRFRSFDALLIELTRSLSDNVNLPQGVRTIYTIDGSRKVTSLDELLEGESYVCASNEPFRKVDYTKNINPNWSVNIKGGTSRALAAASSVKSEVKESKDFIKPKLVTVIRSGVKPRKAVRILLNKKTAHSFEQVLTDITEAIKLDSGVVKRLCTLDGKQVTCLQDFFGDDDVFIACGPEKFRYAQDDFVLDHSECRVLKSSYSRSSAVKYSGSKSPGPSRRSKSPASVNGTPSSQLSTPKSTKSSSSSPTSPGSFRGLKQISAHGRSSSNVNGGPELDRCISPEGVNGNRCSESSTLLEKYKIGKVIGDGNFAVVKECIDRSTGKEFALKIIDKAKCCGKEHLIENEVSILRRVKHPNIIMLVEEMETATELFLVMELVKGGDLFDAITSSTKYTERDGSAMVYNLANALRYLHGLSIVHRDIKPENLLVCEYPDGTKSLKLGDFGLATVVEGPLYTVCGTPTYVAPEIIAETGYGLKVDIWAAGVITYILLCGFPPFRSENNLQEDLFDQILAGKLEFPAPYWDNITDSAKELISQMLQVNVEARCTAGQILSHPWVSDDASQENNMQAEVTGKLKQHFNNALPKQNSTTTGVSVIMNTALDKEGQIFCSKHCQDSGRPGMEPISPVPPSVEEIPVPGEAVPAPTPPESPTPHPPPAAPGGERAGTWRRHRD

[3] = target: Platelet-derived growth factor receptor alpha (Homo sapiens) (UniProt P16234); assay: PDGFRA Invitrogen selectivity data (BI); conditions: Compound concentration 3.0 uM
Sequence of Platelet-derived growth factor receptor alpha (Homo sapiens) (P16234 whole entry): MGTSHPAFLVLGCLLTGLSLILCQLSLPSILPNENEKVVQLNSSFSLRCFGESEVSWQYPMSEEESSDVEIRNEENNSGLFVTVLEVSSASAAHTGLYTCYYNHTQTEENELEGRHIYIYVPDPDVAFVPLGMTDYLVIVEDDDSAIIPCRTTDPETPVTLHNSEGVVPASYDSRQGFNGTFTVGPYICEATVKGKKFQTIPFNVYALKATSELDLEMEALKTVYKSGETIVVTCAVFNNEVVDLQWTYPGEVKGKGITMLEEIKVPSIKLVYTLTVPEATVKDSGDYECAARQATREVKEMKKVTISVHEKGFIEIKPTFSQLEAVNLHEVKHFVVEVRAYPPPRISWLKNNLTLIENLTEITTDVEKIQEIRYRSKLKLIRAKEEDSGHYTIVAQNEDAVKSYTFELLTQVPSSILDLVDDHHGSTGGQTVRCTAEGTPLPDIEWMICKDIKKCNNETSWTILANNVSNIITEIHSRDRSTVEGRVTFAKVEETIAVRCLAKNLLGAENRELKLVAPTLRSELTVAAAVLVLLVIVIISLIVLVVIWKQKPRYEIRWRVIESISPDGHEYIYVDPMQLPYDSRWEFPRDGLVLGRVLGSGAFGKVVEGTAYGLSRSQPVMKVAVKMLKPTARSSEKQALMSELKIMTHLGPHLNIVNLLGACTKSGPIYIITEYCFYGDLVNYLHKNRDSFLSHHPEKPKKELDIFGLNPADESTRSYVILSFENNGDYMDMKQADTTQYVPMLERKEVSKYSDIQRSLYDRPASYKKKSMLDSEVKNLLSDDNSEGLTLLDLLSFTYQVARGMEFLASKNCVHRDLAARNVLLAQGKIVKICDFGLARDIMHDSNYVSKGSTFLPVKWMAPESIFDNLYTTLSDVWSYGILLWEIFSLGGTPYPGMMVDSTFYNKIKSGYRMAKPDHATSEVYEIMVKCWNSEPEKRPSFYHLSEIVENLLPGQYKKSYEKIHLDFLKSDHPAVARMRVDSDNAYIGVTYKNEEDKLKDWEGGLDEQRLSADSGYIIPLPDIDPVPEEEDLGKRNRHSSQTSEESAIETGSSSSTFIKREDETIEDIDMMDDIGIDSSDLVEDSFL

[4] = target: T3, Muscarinic acetylcholine receptor M2 (Homo sapiens) (UniProt P08172); assay: M2/H Cerep selectivity data (BI); conditions: filed as antagonist, Compound concentration 20.0 uM
T3 sequence (whole entry): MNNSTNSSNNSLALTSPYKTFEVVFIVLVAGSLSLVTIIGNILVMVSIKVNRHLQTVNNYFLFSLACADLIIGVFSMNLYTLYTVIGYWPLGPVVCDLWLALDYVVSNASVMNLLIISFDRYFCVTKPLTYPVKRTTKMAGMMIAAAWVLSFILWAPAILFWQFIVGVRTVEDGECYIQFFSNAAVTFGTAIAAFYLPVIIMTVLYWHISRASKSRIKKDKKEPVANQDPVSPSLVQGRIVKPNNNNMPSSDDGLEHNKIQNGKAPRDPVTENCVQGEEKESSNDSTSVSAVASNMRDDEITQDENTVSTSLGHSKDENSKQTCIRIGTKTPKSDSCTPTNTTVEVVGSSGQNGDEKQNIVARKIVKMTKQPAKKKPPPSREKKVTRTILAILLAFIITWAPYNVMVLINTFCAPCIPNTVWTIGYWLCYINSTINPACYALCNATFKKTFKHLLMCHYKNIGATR

[5] = target: Serine/threonine-protein kinase PLK1 (Homo sapiens) (UniProt P53350); assay: PLK1 Invitrogen selectivity data (BI); conditions: Compound concentration 3.0 uM
Sequence of Serine/threonine-protein kinase PLK1 (Homo sapiens) (P53350 whole entry): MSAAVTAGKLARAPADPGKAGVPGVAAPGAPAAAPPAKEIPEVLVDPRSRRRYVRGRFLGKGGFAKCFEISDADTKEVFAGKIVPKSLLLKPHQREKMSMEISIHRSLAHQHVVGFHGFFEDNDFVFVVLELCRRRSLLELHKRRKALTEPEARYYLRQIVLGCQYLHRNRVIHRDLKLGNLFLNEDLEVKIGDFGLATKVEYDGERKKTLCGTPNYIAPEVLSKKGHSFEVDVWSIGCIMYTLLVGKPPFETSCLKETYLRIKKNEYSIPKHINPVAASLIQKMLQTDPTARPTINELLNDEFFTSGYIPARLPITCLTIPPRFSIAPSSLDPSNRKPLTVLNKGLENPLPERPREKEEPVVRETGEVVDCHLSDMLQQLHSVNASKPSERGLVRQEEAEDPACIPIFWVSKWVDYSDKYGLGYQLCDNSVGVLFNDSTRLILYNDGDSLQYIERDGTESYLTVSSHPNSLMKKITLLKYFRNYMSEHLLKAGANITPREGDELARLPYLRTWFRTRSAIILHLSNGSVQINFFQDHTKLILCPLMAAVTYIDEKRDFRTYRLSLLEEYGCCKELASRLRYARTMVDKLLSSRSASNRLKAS

[6] = target: Delta-type opioid receptor (Homo sapiens) (UniProt P41143); assay: DELTA2/H Cerep selectivity data (BI); conditions: Compound concentration 20.0 uM
Sequence of Delta-type opioid receptor (Homo sapiens) (P41143 whole entry): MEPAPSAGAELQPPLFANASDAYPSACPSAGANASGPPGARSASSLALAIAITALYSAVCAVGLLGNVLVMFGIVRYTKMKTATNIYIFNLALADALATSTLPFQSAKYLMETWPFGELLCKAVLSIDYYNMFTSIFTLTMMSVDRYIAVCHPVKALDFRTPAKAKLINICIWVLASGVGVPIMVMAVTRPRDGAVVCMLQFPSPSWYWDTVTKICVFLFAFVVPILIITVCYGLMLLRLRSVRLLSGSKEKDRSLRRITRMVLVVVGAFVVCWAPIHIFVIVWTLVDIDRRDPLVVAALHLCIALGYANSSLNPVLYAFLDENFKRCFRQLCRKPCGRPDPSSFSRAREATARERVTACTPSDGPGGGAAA

[7] = target: T4, Inhibitor of nuclear factor kappa-B kinase subunit beta (Homo sapiens) (UniProt O14920); assay: IKBKB Invitrogen selectivity data (BI); conditions: Compound concentration 3.0 uM
T4 sequence (whole entry): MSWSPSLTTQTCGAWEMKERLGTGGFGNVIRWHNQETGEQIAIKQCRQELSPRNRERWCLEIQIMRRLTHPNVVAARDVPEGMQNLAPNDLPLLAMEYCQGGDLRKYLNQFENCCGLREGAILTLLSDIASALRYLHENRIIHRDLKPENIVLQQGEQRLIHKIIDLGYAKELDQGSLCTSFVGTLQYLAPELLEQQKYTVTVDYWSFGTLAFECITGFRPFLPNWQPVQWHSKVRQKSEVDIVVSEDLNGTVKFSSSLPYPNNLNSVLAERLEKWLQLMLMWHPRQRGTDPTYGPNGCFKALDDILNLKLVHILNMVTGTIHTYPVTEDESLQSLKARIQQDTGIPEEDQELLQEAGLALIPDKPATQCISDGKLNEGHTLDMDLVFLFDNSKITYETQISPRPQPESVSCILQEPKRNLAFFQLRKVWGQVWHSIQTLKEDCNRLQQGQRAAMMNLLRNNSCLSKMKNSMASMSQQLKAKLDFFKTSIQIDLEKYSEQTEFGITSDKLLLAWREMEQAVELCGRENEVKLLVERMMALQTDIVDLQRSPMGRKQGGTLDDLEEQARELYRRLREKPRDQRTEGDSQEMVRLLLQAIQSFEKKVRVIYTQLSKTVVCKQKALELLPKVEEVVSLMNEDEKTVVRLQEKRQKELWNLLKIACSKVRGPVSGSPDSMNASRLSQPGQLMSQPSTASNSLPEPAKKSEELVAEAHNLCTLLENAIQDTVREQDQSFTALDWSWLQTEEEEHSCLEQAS

[8] = target: Alpha-1D adrenergic receptor (Homo sapiens) (UniProt P25100); conditions: Compound concentration 10.0 uM
Sequence of Alpha-1D adrenergic receptor (Homo sapiens) (P25100 whole entry): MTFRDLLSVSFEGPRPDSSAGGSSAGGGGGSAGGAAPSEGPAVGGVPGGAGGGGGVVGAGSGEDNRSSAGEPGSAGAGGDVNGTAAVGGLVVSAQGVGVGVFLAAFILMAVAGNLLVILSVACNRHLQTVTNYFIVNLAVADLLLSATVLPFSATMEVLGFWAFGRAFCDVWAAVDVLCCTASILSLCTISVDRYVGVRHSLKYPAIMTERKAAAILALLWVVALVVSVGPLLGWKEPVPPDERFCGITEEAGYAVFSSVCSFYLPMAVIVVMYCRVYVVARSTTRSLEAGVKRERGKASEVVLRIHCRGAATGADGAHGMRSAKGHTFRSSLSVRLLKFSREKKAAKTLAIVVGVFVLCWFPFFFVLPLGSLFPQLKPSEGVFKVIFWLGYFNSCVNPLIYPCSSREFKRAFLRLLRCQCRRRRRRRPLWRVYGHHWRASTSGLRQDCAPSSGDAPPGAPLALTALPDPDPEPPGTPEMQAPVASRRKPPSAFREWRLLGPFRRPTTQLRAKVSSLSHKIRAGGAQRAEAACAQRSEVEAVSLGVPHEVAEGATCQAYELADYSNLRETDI

CN(C)C(=O)Cn1cc(-c2nc([C@@](C)(c3ccc(-c4cnc(N)nc4)cc3)C3CC3)no2)cn1 [BI 665915]
inactive: residual activity [1] 104% | residual activity [2] 97% | residual activity [3] 86% | residual activity [4] 98% | residual activity [5] 97% | residual activity [6] 100% | residual activity [7] 96.5% | inhibition [8] -3.06%
